# Test results as given in patent US20100189648A1, “INHIBITORS FOR DISRUPTING THE INTERACTION OF UBIQUITINATION RELATED ENZYMES AND USES THEREOF” (priority 2006, published 2010).
# Several values for one entry are separate records, joined by “and”; a condition that tells them apart may be missing. Identical values can stand only once. Like-named read-outs stand apart in the source and are kept apart here.
# Columns and labels:
# Type in all cases: cell-based, human
# HCT116 = assay: MTT survival assay, colon cancer cell line (HCT116); details: for IC50: Homo sapiens
# Procedure: The effect of the above identified compounds on anti-tumor activity in human carcinoma cells was determined by the MTT survival assay. The MTT assay is a commonly used method in evaluation of cell survival, based on the ability of viable cells to convert MTT (MTT, Sigma, Cat No. 044K5307), a soluble tetrazolium salt [3-(4,5-dimethylthuazole-2-yl)-2,5 diphenyl tetrazolium bromide], into an insoluble formazan precipitate, which is quantitated by spectrophotometry following solubilization in dimethyl sulfoxide (DMSO).
# In brief, different carcinoma cells were treated with negative control, various test articles at different concentration, and positive control (DDP), in 96-well tissue culture dishes. Each test article at different concentration is repeated 3 times.
# Different carcinoma cells were diluted with 10% FBS and RPM1640 or MEM media to a concentration of 3-5×10^4 per ml suspension. 100 microliter of cells were incubated in each well in 96-well tissue culture dishes at 37 C. The cells were incubated at 37 C on the first day. On the second day, media supernatant was removed and replaced with media and different concentration of test articles (100 microliter in each well). Three Negative control wells and three positive control (DDP) wells were also included. The 96-well plate were incubated at 37 C for another 68 hours. After 68 hours, supernatant of each well was removed. 100 microliter of 1 mg/ml MTT diluted in PBS was injected into each well. The cells were incubated at 37 C for another 4 hours. The cells were then solubilized in 150 microliter DMSO, mixed for 10 minutes and absorbance readings were taken using Microplate reader Bio-Rad Model 550 at 570 nm. IR (cell growth inhibition rate) % was calculated as (OD570 of negative control-OD570 with test article)/OD570 of negative control. IC50 (cell 50% inhibition concentration) at 95% confidence level was calculated with Bliss method.
# SKOV3 = assay: MTT survival assay, ovarian cancer cell line (SKOV3); details: SKOV3 (second table)
# How it was run: (§1)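 Cells seeded at 3-5×10^4/ml in RPMI1640 or MEM with 10% FBS, treated next day with test articles for 68 h at 37 C in triplicate, then MTT (1 mg/ml) for 4 h. Formazan dissolved in DMSO, read at 570 nm; inhibition vs. untreated control, IC50 by Bliss method.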
# U251 = assay: MTT survival assay, glioma cell line (brain tumor U251); details: U251 (second table)
# How it was run: as §1
# Hela cells = assay: MTT survival assay, cervical cancer line (Hela cells); details: for IC50: Homo sapiens
# How it was run: as §1
# A459 = assay: MTT survival assay, lung cancer cell line (A459); details: A459 Experiment #2; for IC50: Homo sapiens
# How it was run: as §1
# SMMC-7721 = assay: MTT survival assay, liver cancer cell line (SMMC-7721); details: SMMC-7721 Experiment #2; for IC50: Homo sapiens
# How it was run: as §1
# MCF-7 = assay: MTT survival assay, breast cancer cell line (MCF-7); details: for IC50: Homo sapiens
# How it was run: as §1
# [1] = 95% confidence limits of IC50, read-out: IC50 (95% confidence level), interval
# [2] = Bliss method, unit not printed (concentrations in μg/ml), read-out: IC50 (95% confidence level)
smiles,measurement,setting,value
O=C(CSc1cc(COc2ccc(Br)cc2)[nH]n1)c1ccccc1 [Mol 21],IR (%),HCT116; 3.125 μg/ml,56.2% and 30.4%
same,OD(A570 nm),HCT116; 6.25 μg/ml,0.300 ± 0.050 and 0.394 ± 0.039
same,OD(A570 nm),HCT116; 12.5 μg/ml,0.150 ± 0.025 and 0.267 ± 0.035
same,IR (%),HCT116; 25 μg/ml,80.0% and 81.3%
same,OD(A570 nm),HCT116; 25 μg/ml,0.109 ± 0.006 and 0.101 ± 0.020
same,OD(A570 nm),HCT116; 50 μg/ml,0.083 ± 0.011 and 0.085 ± 0.004
same,IR (%),HCT116; 100 μg/ml,84.1% and 84.7%
same,OD(A570 nm),HCT116; 100 μg/ml,0.086 ± 0.012 and 0.083 ± 0.001
same,IC50,"HCT116; HCT-116, 95% confidence limits of IC50, read-out: IC50 (95% confidence level), interval",2.99 to 3.33 µg/mL
same,IC50,"HCT116; HCT-116, Bliss method, unit not printed (concentrations in μg/ml), read-out: IC50 (95% confidence level)",3.16 µg/mL
same,IC50,"SKOV3; Homo sapiens, SK-OV-3, Bliss method, unit not printed (concentrations in μg/ml), read-out: IC50 (95% confidence level)",17.7 µg/mL
same,IR (%),SKOV3; 3.125 μg/ml,28.2%
same,OD(A570 nm),SKOV3; 3.125 μg/ml,0.503 ± 0.031
same,IR (%),SKOV3; 6.25 μg/ml,24.1%
same,OD(A570 nm),SKOV3; 6.25 μg/ml,0.532 ± 0.025
same,IR (%),SKOV3; 12.5 μg/ml,34.3%
same,OD(A570 nm),SKOV3; 12.5 μg/ml,0.460 ± 0.195
same,IR (%),SKOV3; 25 μg/ml,38.8%
same,OD(A570 nm),SKOV3; 25 μg/ml,0.429 ± 0.002
same,IR (%),SKOV3; 50 μg/ml,83.0%
same,OD(A570 nm),SKOV3; 50 μg/ml,0.119 ± 0.010
same,IR (%),SKOV3; 100 μg/ml,89.1%
same,OD(A570 nm),SKOV3; 100 μg/ml,0.077 ± 0.011
same,IC50,"U251; Homo sapiens, U-251, Bliss method, unit not printed (concentrations in μg/ml), read-out: IC50 (95% confidence level)",16.2 µg/mL
same,IR (%),U251; 3.125 μg/ml,4.2%
same,OD(A570 nm),U251; 3.125 μg/ml,0.840 ± 0.013
same,IR (%),U251; 6.25 μg/ml,18.0%
same,OD(A570 nm),U251; 6.25 μg/ml,0.719 ± 0.110
same,IR (%),U251; 12.5 μg/ml,42.8%
same,OD(A570 nm),U251; 12.5 μg/ml,0.501 ± 0.058
same,IR (%),U251; 25 μg/ml,73.5%
same,OD(A570 nm),U251; 25 μg/ml,0.232 ± 0.034
same,IR (%),U251; 50 μg/ml,86.2%
same,OD(A570 nm),U251; 50 μg/ml,0.121 ± 0.019
same,IR (%),U251; 100 μg/ml,89.2%
same,OD(A570 nm),U251; 100 μg/ml,0.094 ± 0.007
same,IR (%),Hela cells; 0.41 μg/ml,10.0%
same,OD(A570 nm),Hela cells; 0.41 μg/ml,0.668 ± 0.049
same,OD(A570 nm),Hela cells; 1.23 μg/ml,0.785 ± 0.081
same,OD(A570 nm),Hela cells; 3.70 μg/ml,0.774 ± 0.066
same,IR (%),Hela cells; 11.11 μg/ml,35.4%
same,OD(A570 nm),Hela cells; 11.11 μg/ml,0.480 ± 0.035
same,IR (%),Hela cells; 33.33 μg/ml,73.8%
same,OD(A570 nm),Hela cells; 33.33 μg/ml,0.194 ± 0.031
same,IR (%),Hela cells; 100 μg/ml,82.5%
same,OD(A570 nm),Hela cells; 100 μg/ml,0.130 ± 0.039
same,IC50,Hela cells; [1],18.8 to 26.4 µg/mL
same,IC50,Hela cells; [2],22.2 µg/mL
same,IR (%),A459; 3.125 μg/ml,−0.7%
same,OD(A570 nm),A459; 3.125 μg/ml,0.642 ± 0.073
same,IR (%),A459; 6.25 μg/ml,−3.9%
same,OD(A570 nm),A459; 6.25 μg/ml,0.662 ± 0.031
same,IR (%),A459; 12.5 μg/ml,56.2%
same,OD(A570 nm),A459; 12.5 μg/ml,0.279 ± 0.014
same,IR (%),A459; 25 μg/ml,81.5%
same,OD(A570 nm),A459; 25 μg/ml,0.118 ± 0.027
same,IR (%),A459; 50 μg/ml,89.2%
same,OD(A570 nm),A459; 50 μg/ml,0.069 ± 0.010
same,IR (%),A459; 100 μg/ml,87.1%
same,OD(A570 nm),A459; 100 μg/ml,0.082 ± 0.015
same,IC50,A459; [1],6.3 to 7.13 µg/mL
same,IC50,A459; [2],6.72 µg/mL
same,IC50,SMMC-7721; [1],9.32 to 9.71 µg/mL
same,IC50,SMMC-7721; [2],9.52 µg/mL
same,IR (%),SMMC-7721; 3.125 μg/ml,−49.9%
same,OD(A570 nm),SMMC-7721; 3.125 μg/ml,0.690 ± 0.603
same,IR (%),SMMC-7721; 6.25 μg/ml,65.1%
same,OD(A570 nm),SMMC-7721; 6.25 μg/ml,0.161 ± 0.085
same,IR (%),SMMC-7721; 12.5 μg/ml,68.3%
same,OD(A570 nm),SMMC-7721; 12.5 μg/ml,0.146 ± 0.041
same,IR (%),SMMC-7721; 25 μg/ml,72.0%
same,OD(A570 nm),SMMC-7721; 25 μg/ml,0.129 ± 0.006
same,IR (%),SMMC-7721; 50 μg/ml,82.9%
same,OD(A570 nm),SMMC-7721; 50 μg/ml,0.079 ± 0.005
same,IR (%),SMMC-7721; 100 μg/ml,83.2%
same,OD(A570 nm),SMMC-7721; 100 μg/ml,0.077 ± 0.009
same,IR (%),MCF-7; 3.125 μg/ml,12.5%
same,OD(A570 nm),MCF-7; 3.125 μg/ml,0.789 ± 0.064
same,IR (%),MCF-7; 6.25 μg/ml,30.9%
same,OD(A570 nm),MCF-7; 6.25 μg/ml,0.624 ± 0.008
same,IR (%),MCF-7; 12.5 μg/ml,61.6%
same,OD(A570 nm),MCF-7; 12.5 μg/ml,0.346 ± 0.022
same,IR (%),MCF-7; 25 μg/ml,89.1%
same,OD(A570 nm),MCF-7; 25 μg/ml,0.098 ± 0.006
same,IR (%),MCF-7; 50 μg/ml,92.4%
same,OD(A570 nm),MCF-7; 50 μg/ml,0.069 ± 0.006
same,IR (%),MCF-7; 100 μg/ml,92.1%
same,OD(A570 nm),MCF-7; 100 μg/ml,0.072 ± 0.007
same,IC50,"MCF-7; MCF7, 95% confidence limits of IC50, read-out: IC50 (95% confidence level), interval",8.53 to 11.4 µg/mL
same,IC50,"MCF-7; MCF7, Bliss method, unit not printed (concentrations in μg/ml), read-out: IC50 (95% confidence level)",9.93 µg/mL
